Results from patent US4469701A, “Pyrrolid-3-en-2-ones and pharmaceutical methods of use thereof” (Stauffer Chemical Company, priority 1983, dated 1984).

Assays:
[1] = tested on: hypercholesterolemic mice; experiment: Hypocholesterolemic: serum cholesterol in hypercholesterolemic mice; assay type: in vivo, mouse; details: hypercholesterolemic mice; for inhibition in vivo at 200 mg/kg / ED100: Mus musculus; for inhibition in vivo at 200 mg/kg: 2 oral doses of 200 mg/kg 20 hr. apart, significance >20, read-out: C = Hypocholesterolemic: percent decrease in serum cholesterol; for ED100: po, read-out: ED-100, hypocholesterolemic
Procedure: Mice made hypercholesterolemic by being fed a high cholesterol-cholic acid diet for 7 days were dosed on the sixth and seventh days, p.o. After fasting overnight, reduction in serum cholesterol concentration by more than 15% (>15) from hypercholesterolemic control mice indicates activity.
^4 C = Hypocholesterolemic. Percent decrease in serum cholesterol in
hypercholesterolemic mice given 2 oral doses of 200 mg/kg drug candidate

[2] = tested on: hypercholesterolemic mice; experiment: HP-betalipoprotein: serum heparin precipitating lipoprotein (HPL); assay type: in vivo, mouse; details: hypercholesterolemic mice; for ED100: Mus musculus, po, read-out: ED-100, HP-betalipoprotein
From the text: Reduction of serum heparin precipitating lipoprotein (HPL) concentrations (corresponding to low density lipoprotein and very low density lipoprotein fractions) in the same hypercholesterolemic mice from Test 6 above by more than 20% (>20) from control animals indicates activity.

rats [3] = experiment: Antiedema: carrageenan paw edema in rats; assay type: in vivo; details: Rattus norvegicus, po, 3 h, read-out: ED-100, antiedema
Procedure: Rats are dosed p.o. one hour before intraplantar injection of carrigeenan (0.1 ml, 1% susp.). Inhibition of paw edema by more than 30% (>30) 3 hours after carriegeenan injection indicates acute anti-edema activity.

starch loaded mice = experiment: Carbohydrate (CHO) efficiency/hypoglycemic, starch loaded mice; assay type: in vivo, mouse; details: for ED100: Mus musculus, 1 h, oral, reference compounds, read-out: ED-100, CHO efficiency/hypoglycemic
glucose-loaded mice = experiment: Hypoglycemic, glucose-loaded mice; assay type: in vivo, mouse; details: for ED100: Mus musculus, po, 1 h, p.o., reference compounds, read-out: ED-100, hypoglycemic, mice; for H = Hypoglycemic: percent decrease in serum glucose concentration: glucose loaded mice, 100 mg/kg oral dose, significance >20
Procedure: Reduction in blood glucose concentration by more than 20% (>20) in fasted, glucose-loaded (1 gm/kg) mice one hour after dosing, p.o., indicates activity (test compound administered at same time as glucose load).
^5 H = Hypoglycemic. Percent decrease in serum glucose concentration
in glucose loaded mice hr. following a 100 mg/kg oral dose.

mice [4] = experiment: Peripheral anticholinergic: lacrimation and salivation in mice; assay type: in vivo; details: Mus musculus, ip, read-out: ED-100, peripheral anticholinergic
mice [5] = experiment: Central anticholinergic: oxotremorine tremors in mice; details: Mus musculus, ip, 1 h, read-out: ED-100, central anticholinergic
rats [6] = experiment: Antiulcer: stress induced gastric ulcers in rats; assay type: in vivo, rat; details: for inhibition in vivo at 50 mg/kg: 4 hr. following a 50 mg/kg oral dose in rats, significance >60, read-out: U = Antiulcerative: percent inhibition of stress ulcers
Procedure: Fasted rats were dosed, p.o., 30 minutes before immobilization in wire mesh and partial immersion in water for 4 hours. Inhibition of the resulting stress induced gastric ulcers by more than 60% (>60) indicates activity.
^6 U = Antiulcerative. Percent inhibition of stress ulcers 4 hr.
following a 50 mg/kg oral dose in rats.

mice [7] = experiment: Antiarrhythmic: chloroform-induced cardiac arrhythmia in mice; assay type: in vivo, mouse; details: for A = Antiarrythmic: mouse hearts fibrillating (of 3): 15 min. after a 200 mg/kg intraperitoneal dose, significance <2
Procedure: ^2 A = Antiarrythmic. Less than 2/3 mouse hearts fibrillating 15 min.

rats [8] = experiment: Bradycardia: heart rate by EKG in rats; assay type: in vivo, rat; details: Rattus norvegicus, 0.75 h; 45 min. after a 5 mg/kg oral dose in rats; significance >10; read-out: B = Bradycardiac: percent decrease in heart rate
Procedure: […] Decrease in heart rate by more than 10% (>10) is considered a bradycardic effect.
Percent decrease in heart rate 45 min. after a 5
mg/kg oral dose in rats.

mice [9] = experiment: Acute toxicity / autonomic effects observation; details: mouse, in vivo
Procedure: Mice were dosed at 300 mg/kg, per oral (p.o.) and […], interperitoneal (i.p.) for observation of any acute toxic symptoms or autonomic effects during the subsequent 72 hours. If none were noted, pharmacological evaluation proceeded employing doses and concentrations for each test based on appropriate multiples of doses required by suitable reference compounds. If acute toxicity was observed initially, the minimal toxic dose was determined and pharmacological screening doses were reduced proportionately.

[10] = tested on: spontaneously hypertensive rats (SHR); experiment: Antihypertensive: blood pressure (tail cuff) in spontaneously hypertensive rats (SHR); assay type: in vivo, rat; details: for inhibition in vivo at 100 mg/kg: 6 hr. after a 100 mg/kg oral dose, significance >10, read-out: Antihypertensive: percent decrease in systolic blood pressure in spontaneously hypertensive rats
Procedure: Blood pressure was measured indirectly (tail cuff) in unanesthetized, unheated spontaneously hypertensive rats (SHR) before and 2, 4, and 6 hours after p.o. dosing. Reduction in mean pressure by more than 10% (>10) at any two consecutive measurement times after dosing indicates antihypertensive activity.

mice [11] = experiment: Pupil dilation in mice; assay type: in vivo, mouse; details: i.p.; for Reference dose, pupil dilation: reference compounds and the doses thereof
Procedure: If the pupil diameter of mice exceeds 1.0 mm (>1) in bright light 30 minutes after dosing, i.p., ganglionic blockage or anti-cholinergic activity is indicated in the absence of adrenergic action. The following are reference compounds and the doses thereof.

[12] = Anticholinergic properties (overall statement); details: in vivo
[13] = Central nervous system (CNS) depression/effects; details: in vivo
[14] = p.o., rats, reference compounds

c1cc(N2CCCCC2)ccc1OC12CC3CC(CC(C3)C1)C2 [Compound U-41792, reference compound]
ED-100, hypocholesterolemic ([1]; p.o., reference compounds): 200 mg/kg | ED-100, HP-betalipoprotein ([2]; reference compounds): 200 mg/kg

CC(=O)Oc1ccccc1C(=O)O [aspirin]
ED100 (rats [3]): 150 mg/kg

[H]/N=C(/N)N/C(=N/[H])NCCc1ccccc1 [phenformin, reference compound]
ED100 (starch loaded mice): 100 mg/kg | ED100 (glucose-loaded mice; glucose-loaded mice): 100 mg/kg

CN(C)CCC=C1c2ccccc2CCc2ccccc21 [amitriptyline]
ED100 (mice [4]; mice, reference compounds): 25 mg/kg | ED100 (mice [5]): 10 mg/kg

insulin
ED-100, CHO efficiency/hypoglycemic (insulin) (starch loaded mice; subcutaneous (s.c.)): 0.25 U | ED-100, hypoglycemic, mice (insulin) (glucose-loaded mice; s.c., glucose-loaded mice): 0.25 U

CC1(C)CCCC(C)(C)N1CC1=CC(=O)N(c2ccccc2)C1 [Compound 6]
inhibition in vivo at 200 mg/kg [1]: 12% | inhibition in vivo at 50 mg/kg (rats [6]; Rattus norvegicus): 75% | A = Antiarrythmic: mouse hearts fibrillating (of 3) (mice [7]): 3 | inhibition in vivo at 5 mg/kg (rats [8]): 20% | Autonomic effect / autonomic inhibition (mice [9]): little evidence of autonomic effect | H = Hypoglycemic: percent decrease in serum glucose concentration (glucose-loaded mice): 29% | inhibition in vivo at 100 mg/kg ([10]; Rattus norvegicus): 18%

CCCCC1C(=O)N(c2ccccc2)N(c2ccccc2)C1=O [phenylbutazone]
ED100 (rats [3]; [14]): 50 mg/kg

CCCCNC(=O)NS(=O)(=O)c1ccc(C)cc1 [tolbutamide, reference compound]
ED100 (starch loaded mice): 50 mg/kg | ED100 (glucose-loaded mice; glucose-loaded mice): 50 mg/kg

COc1ccc(Cl)cc1C(=O)NCCc1ccc(S(=O)(=O)NC(=O)NC2CCCCC2)cc1 [glibenclamide, reference compound]
ED100 (starch loaded mice): 1 mg/kg | ED100 (glucose-loaded mice; glucose-loaded mice): 1 mg/kg

CN1[C@@H]2CC[C@H]1C[C@@H](OC(=O)C(CO)c1ccccc1)C2 (stereo partly shown) [atropine, reference compound]
ED100 (mice [4]): 0.25 mg/kg | ED100 (mice [5]): 2 mg/kg | ED100 (rats [6]; Rattus norvegicus, po, read-out: ED-100, antiulcer): 5 mg/kg | Reference dose, pupil dilation (mice [11]): 0.25 mg/kg

CNC1(C)C2CCC(C2)C1(C)C (stereo not shown) [mecamylamine, reference compound]
Reference dose, pupil dilation (mice [11]): 2.5 mg/kg | ED100 ([10]; Rattus norvegicus, po, SHR, reference compounds, read-out: ED-100, antihypertensive): 10 mg/kg

CC1(C)CCCC(C)(C)N1CC1=CC(=O)N(c2ccccc2Cl)C1 [Compound 9]
inhibition in vivo at 200 mg/kg [1]: 0% | Anticholinergic properties/effects [12]: not likely anticholinergic in nature | inhibition in vivo at 50 mg/kg (rats [6]; Rattus norvegicus): 100% | A = Antiarrythmic: mouse hearts fibrillating (of 3) (mice [7]): 0 | inhibition in vivo at 5 mg/kg (rats [8]): 18% | Ganglionic blockade as cause of pupillary dilation (mice [11]; 25 mg/kg): does not appear to reflect ganglionic blockade | Pupil dilation (mice [11]; 25 mg/kg): Pupillary dilation was again noted | H = Hypoglycemic: percent decrease in serum glucose concentration (glucose-loaded mice): 27% | inhibition in vivo at 100 mg/kg ([10]; Rattus norvegicus): 31%

CC(C)(Oc1ccc(CCNC(=O)c2ccc(Cl)cc2)cc1)C(=O)O [bezafibrate, reference compound]
ED100 ([1]; reference compounds): 200 mg/kg | ED100 ([2]; reference compounds): 200 mg/kg

C[C@]12CCC(=O)C=C1CC[C@@H]1[C@@H]2[C@@H](O)C[C@@]2(C)[C@H]1CC[C@]2(O)C(=O)CO [hydrocortisone]
ED100 (rats [3]): 25 mg/kg

Cc1cccc(N2CC(CN3C(C)(C)CCCC3(C)C)=CC2=O)c1 [Compound 4]
inhibition in vivo at 200 mg/kg [1]: 25% | inhibition in vivo at 50 mg/kg (rats [6]; Rattus norvegicus): 75% | A = Antiarrythmic: mouse hearts fibrillating (of 3) (mice [7]): 2 | Dose with borderline antiarrhythmic result (mice [7]; i.p., mice, chloroform arrhythmia): 100 mg/kg | HPL/cholesterol ratio ([2]; 400 mg/kg, p.o.): marked reduction | inhibition in vivo at 5 mg/kg (rats [8]): 19% | Pupil dilation (mice [11]; 50 mg/kg): significantly dilated | inhibition in vivo at 100 mg/kg ([10]; Rattus norvegicus): 23% | Antihypertensive activity, onset / comparison in words ([10]; p.o.): generally comparable to that of Compound 3 | Dose at which antihypertensive effects were decreasing ([10]; p.o.): 10 mg/kg

O=C(O)c1cc(-c2ccc(F)cc2F)ccc1O [diflunisal]
ED100 (rats [3]; [14]): 25 mg/kg

CC1(C)CCCC(C)(C)N1CC1=CC(=O)N(c2cccc(C#N)c2)C1 [Compound 15]
inhibition in vivo at 200 mg/kg [1]: 15% | Anticholinergic properties/effects [12]: absence | inhibition in vivo at 50 mg/kg (rats [6]; Rattus norvegicus): 88% | Antiulcer effect, in words (rats [6]; rat, in vivo): unusual and strong activity | CNS depression / CNS effects [13]: absence of CNS depression | A = Antiarrythmic: mouse hearts fibrillating (of 3) (mice [7]): 3 | inhibition in vivo at 5 mg/kg (rats [8]): 0% | Acute toxicity / toxic effects (mice [9]): absence | inhibition in vivo at 100 mg/kg ([10]; Rattus norvegicus): 19%

CN1CCN(C2=Nc3cc(Cl)ccc3Nc3ccccc32)CC1 [clozapine]
ED100 (mice [4]; mice, reference compounds): 10 mg/kg | ED100 (mice [5]): 10 mg/kg

CC/C(=C(/CC)c1ccc(O)cc1)c1ccc(O)cc1 [diethylstilbestrol, reference compound]
ED100 ([1]; reference compounds): 200 mg/kg | ED100 ([2]; reference compounds): 200 mg/kg

OC(CCN1CCCCC1)(c1ccccc1)C1CCCCC1 (stereo not shown) [trihexyphenidyl]
ED100 (mice [4]; mice, reference compounds): 2.5 mg/kg | ED100 (mice [5]): 10 mg/kg

COc1ccc2cc([C@H](C)C(=O)O)ccc2c1 [naproxen]
ED100 (rats [3]; [14]): 5 mg/kg

COc1ccc2c(c1)c(CC(=O)O)c(C)n2C(=O)c1ccc(Cl)cc1 [indomethacin]
ED100 (rats [3]): 4 mg/kg

N[C@H](Cc1cc(I)c(Oc2cc(I)c(O)c(I)c2)c(I)c1)C(=O)O [D-thyroxine, reference compound]
ED100 ([1]; reference compounds): 10 mg/kg | ED100 ([2]; reference compounds): 10 mg/kg

CC1(C)CCCC(C)(C)N1CC1=CC(=O)N(c2cccc(Cl)c2)C1 [Compound 13]
inhibition in vivo at 200 mg/kg [1]: 13% | Anticholinergic properties/effects [12]: absence | inhibition in vivo at 50 mg/kg (rats [6]; Rattus norvegicus): 88% | CNS depression / CNS effects [13]: absence of CNS | A = Antiarrythmic: mouse hearts fibrillating (of 3) (mice [7]): 3 | inhibition in vivo at 5 mg/kg (rats [8]): 1% | Acute toxicity / toxic effects (mice [9]): absence | inhibition in vivo at 100 mg/kg ([10]; Rattus norvegicus): 4%

CC(C(=O)O)c1cccc(C(=O)c2ccccc2)c1 (stereo not shown) [ketoprofen]
ED100 (rats [3]): 5 mg/kg

CC(C)Cc1ccc(C(C)C(=O)O)cc1 (stereo not shown) [ibuprofen]
ED100 (rats [3]; [14]): 25 mg/kg
